Source: PubChem BioAssay AID504936 (NMMLSC, 2011)
The source made the active and inactive calls.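 How the source made its calls: active means cytostatic effect above 60% on a scale from DMSO controls to rapamycin controls, holding yeast in G1/G0 phase; inactive means the rest.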

Tested on: S. cerevisiae BY4741 DNA content flow cytometry, cell cycle
Assay: S. cerevisiae cell cycle DNA content profile – flow cytometry (AID 504936);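 further: yeast exposed to compound for three five or seven days before fixation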
Settings: at 10 µM; for G1/G0 population: stronger effect = higher value; for G2 population: measured here: G2 phase fraction, stronger effect = lower value; for apoptotic population: measured here: apoptotic fraction

| Structure (SMILES) | G1/G0 population | G2 population | apoptotic population |
| --- | --- | --- | --- |
| COc1ccc2cc(C3CC(c4ccco4)=NN3S(=O)(=O)c3ccccc3)c(Cl)nc2c1 (stereo not given) | 79% (inactive) | 12.7% | 6.88% |
| C[C@@]12C(=O)OC(=O)[C@]1(C)C1CCC2O1 | 61.6% (inactive) | 9.56% | 24.9% |
| Cc1cc(C)cc(NC(=O)CN2CCN(c3ccccn3)CC2)c1 | 73.5% (inactive) | 12.4% | 12.2% |
| CC(C)OC(=O)CSc1nnc(-c2ccc(Cl)cc2Cl)o1 | 79.6% (inactive) | 12.9% | 6.08% |
| O=C(/C=C/c1ccccc1)NC(=S)NNC(=O)Cc1cccs1 | 80.1% | 3.91% | 12.7% |
| O=C(CN1CCN(c2ccccn2)CC1)Nc1ccccc1F | 74% (inactive) | 12.1% | 12% |
| CCC(=Nc1ccccc1O)C1=C(O)CC(c2ccccc2)CC1=O (stereo not given) | 74.7% (inactive) | 12.1% | 12% |
| COc1ccc2c(c1)c1nnc(SC)nc1n2C | 58.9% (inactive) | 11.7% | 27.7% |
| Cc1ccc(-c2nn(C(C)(C)C)c3ncnc(N)c23)cc1 | 70.3% (inactive) | 9.27% | 16.3% |
| CC(C)(C)n1nc(-c2ccc(Cl)cc2)c2c(N)ncnc21 | 70.8% (inactive) | 0.23% | 12.6% |
| CCCCCNC(=O)C(=O)C1C(=O)Nc2ccccc21 (stereo not given) | 71.4% (inactive) | 6.62% | 20% |
| COc1ccc2nc3ccccc3[n+]([O-])c2c1 | 69.4% (inactive) | 13.5% | 15% |
| O=C(/C=C/c1cccs1)NC(=S)NNC(=O)Cc1cccs1 | 73% (inactive) | 11.1% | 14% |
| C=CCOn1c(=O)c(-c2cccs2)[n+]([O-])c2ccccc21 | 73.2% (inactive) | 13.9% | 11.3% |
| CCc1nc(NC(C)(C)C)c2cnn(-c3ccccc3)c2n1 | 75.3% (inactive) | 13.1% | 9.99% |
| CC(C)(C)n1nc(-c2ccc(F)cc2)c2c(N)ncnc21 | 70.5% (inactive) | 3.33% | 14.9% |
| Cn1c(O)c(C(=Nc2ccc(F)cc2)c2ccccc2Cl)c(=O)n(C)c1=O | 72% (inactive) | 14.8% | 11.1% |
| O=C(OCc1c(F)cccc1Cl)c1cnc2ccccc2n1 | 73.8% (inactive) | 13.8% | 10.5% |
| CC(C)OC(=O)c1ccc2nc3ccccc3nc2c1 | 78.1% (inactive) | 12.4% | 7.62% |
| Oc1cccc2nc3ccccc3nc12 | 43% (inactive) | 9.27% | 44% |
| FC(F)(F)c1nc2cc3nc4ccccc4[nH]c3cc2n1 | 71.5% (inactive) | 10.6% | 12.3% |
| O=C1c2c(O)ccc(O)c2C(=O)c2c(NCCNCCO)ccc(NCCNCCO)c21 | 0.072% (inactive) | 0% | 99.9% |
| CCN(CC)C(=O)c1ccc2nc3ccccc3nc2c1 | 78.8% (inactive) | 11.3% | 8.05% |
| CCn1c2ccccc2c2n[nH]c(=S)nc21 | 80% (inactive) | 11.1% | 6.8% |
| OCC[n+]1c2ccccc2nc2ccc(N3CCOCC3)cc21 | 74.9% (inactive) | 12.4% | 11% |
| O=C(Nc1ccc2nc3ccccc3nc2c1)c1ccc(Br)cc1 | 77.7% (inactive) | 12.5% | 8.37% |
| CC(C)CSc1nnc2c3ccccc3n(C)c2n1 | 75% (inactive) | 12% | 11.2% |
| Nc1cc2nc3ccccc3nc2cc1N | 79% (inactive) | 9.84% | 9% |

| Structure (SMILES) | G1/G0 population | G2 population | apoptotic population |
| --- | --- | --- | --- |
| O=C(c1cccc2nc3ccccc3nc12)N1CCOCC1 | 76.5% (inactive) | 12.1% | 9.75% |
| CNc1ccc2nc3ccccc3[n+](C)c2c1 | 52.8% (inactive) | 8.35% | 36.6% |
| [O-][n+]1c2ccccc2[n+]([O-])c2cc(O)ccc21 | 48.4% (inactive) | 8.17% | 37.1% |
| c1ccc2[nH]c3cc4ncnc4cc3nc2c1 | 58.6% (inactive) | 8.26% | 30.4% |
| CC(C)(C)Nc1ncnc2c1cnn2-c1ccccc1 | 62.9% (inactive) | 10.3% | 25% |
| CSc1nnc(-c2ccc([N+](=O)[O-])cc2)o1 | 79.2% (inactive) | 10.8% | 8.39% |
| COc1ccc2nc3ccccc3nc2c1 | 65.9% (inactive) | 12.7% | 18.8% |
| Cn1c(=O)[nH]c2nncnc2c1=O | 73.1% (inactive) | 12% | 12.7% |
| CN(C)CCNc1ncnc2c1cnn2-c1ccc(Cl)cc1 | 52.4% (inactive) | 10.3% | 35.5% |
| COc1cccc2nc3cc(C)c(C)cc3nc12 | 64.8% (inactive) | 11% | 21.7% |
| COc1ccc2nc3ccccc3nc2c1NC(=O)c1ccccc1Cl | 79.9% (inactive) | 12.2% | 6.11% |
| C#CCSc1ccc(-c2ccc([N+](=O)[O-])cc2)o1 | 79.6% (inactive) | 11% | 8.02% |
| CCN(CC)C(=O)CSc1nnc(-c2cccc(OC)c2)o1 | 70.5% (inactive) | 12.1% | 15.5% |
| C[n+]1c2ccccc2nc2ccc(NCCO)cc21 | 77.6% (inactive) | 7.26% | 8.98% |
| O=C(Nc1cccc(Cl)c1)Nc1ccc2nccnc2c1 | 77.4% (inactive) | 12% | 8.93% |
| N#CCc1nn(-c2ccccc2)c2ncnc(N)c12 | 78.8% (inactive) | 10.6% | 8.22% |
| O=c1[nH]c(O)c(C=Nc2ccc(F)c(Cl)c2)c(=O)[nH]1 | 78.7% (inactive) | 12.7% | 7.01% |
| CC(=O)Nc1ccc2nc3ccccc3nc2c1 | 72.9% (inactive) | 11.9% | 12.6% |
| CCN(CC)C(=O)c1cccc2nc3ccccc3nc12 | 42.7% (inactive) | 8.88% | 46.6% |
| c1ccc2nc3ccccc3nc2c1 | 71.8% (inactive) | 13.2% | 12.3% |
| Cc1cc2nc3ccc(N(C)C)cc3nc2cc1N | 67.3% (inactive) | 5.62% | 20.3% |
| N#CC(c1nc2ccccc2nc1N1CCCC1)S(=O)(=O)c1ccccc1 (stereo not given) | 75.8% (inactive) | 11.9% | 9.82% |
| Cc1cc(C)c2[nH]c3nc(SCC(=O)O)nnc3c2c1 | 79.8% (inactive) | 10.9% | 7.85% |
| C=CCSc1ccc(-c2ccc([N+](=O)[O-])cc2)o1 | 65.8% (inactive) | 10.1% | 21.7% |
| O=C(O)c1cnc2ccccc2n1 | 78.8% (inactive) | 12.5% | 7.02% |
| COc1ccc2nc3ccccc3nc2c1N | 56.9% (inactive) | 10.2% | 29.3% |
| Cc1ccccc1NC(=O)c1cccc2nc3ccccc3nc12 | 72.9% (inactive) | 12.2% | 13.2% |
